Measured values from patent publication US4336389A, “2-Substituted-4-aryl-5-thiazolecarboxylic acids and their derivatives as safening agents” (Monsanto Company, priority 1978, dated 1982).

Assays:
Assay type in all cases: in vivo
[1] = system: rice; test: Safening effect against butachlor injury to rice, safening agent and herbicide incorporated in soil (Example 15, Table I); set-up: key: herbicide-alone + safener-alone effect (max 100) minus combined effect; details: safening agent 8.96 kg/h; butachlor 4.48 kg/h; ~21 days
Experimental: (§1) A good grade of top soil is placed in a container and compacted to a depth of approximately 1.27 cm. from the top of said container. A predetermined number of rice seeds to be tested are placed on top of the soil. A quantity of soil sufficient to substantially fill the container is measured and placed in a second container. A measured quantity of the safening agent dispersed or dissolved in a suitable carrier is applied to the soil in the second container. A measured quantity of butachlor dispersed or dissolved in a suitable carrier is then sprayed on the soil already treated with the safening agent. The soil containing the safening agent and herbicide is thoroughly mixed. This mixing is sometimes referred to as incorporation of the herbicide and safening agent into the soil. The mixing or incorporation provides a substantially uniform distribution of the safening agent and herbicide throughout the soil. The seeds are covered with the soil containing the safening agent and herbicide and the pans are leveled. The pans are then placed on a sand bench in the greenhouse and watered from below as needed. The plants are observed at the end of approximately 21 days and the results in terms of percent inhibition of each seed lot are recorded. For each test series a pan of plants is also prepared containing no herbicide and no safening agent as a control. Additionally, for each test, a pan of plants is prepared with soil covering the seed containing no herbicide and only the measured amount of safening agent being incorporated into the soil covering the seeds to ascertain any herbicidal effect of the safening agent alone. For each series of tests the herbicidal effect of the herbicide is observed from pans of plants treated with the same quantity of herbicide alone. The "safening effect" is determined by adding the hericidal effect of the herbicide when applied alone to the herbicidal effect of the safening agent when applied alone (in no instance, however, will this sum be greater than 100) and substracting from that the herbicidal effect obtained when the herbicide and safening agent are incorporated into the soil as discussed above.
Table I summarizes the results obtained when the compounds of the invention were tested in accordance with the procedure of Example 15.

[2] = system: rice; test: Safening effect against butachlor injury to pre-soaked rice, soil surface application, flooded pots (Example 16, Table II); set-up: key: herbicide injury alone + safener injury alone (max 100) minus combined injury; details: safening agent 1.12 kg/h, ~21 days, mean of two replicates
Experimental: as §1
A good grade of top soil is placed in a plastic pot. A measured quantity of the safening agent dispersed or dissolved in a suitable carrier is sprayed on the soil surface. A measured quantity of butachlor herbicide dissolved in a solvent is sprayed on the soil surface. Presoaked rice is seeded into the pots that were previously flooded with water and the water level lowered below the soil surface for one week. The pots are flooded at least up to the soil surface for the duration of the test. The plants are observed at the end of approximately 21 days and the results in terms of the percent inhibition of rice is recorded. As in Example 15, for each test pots are prepared containing soil treated only with butachlor. For each test, pots are also prepared containing soil treated only with the safening agent. Pots are also prepared in which the soil is not treated with either the herbicide or the safening agent. The safening effect is determined in accordance with Example 15.
Table II summarizes the results obtained when the compounds of the invention were tested in accordance with the procedure of Example 16.

[3] = system: Barnyard Grass; test: Percent inhibition of barnyard grass, mixture incorporated in soil cover layer (Example 19, Table V); details: ~21 days
Excerpt: (§2) 5.08 cm. of a good grade of top soil is placed in a 7.62 cm. deep plastic pot. A predetermined number of weed seeds and rice seeds are applied to the soil surface. Butachlor and ethyl 2-chloro-4-phenyl-5-thiazolecarboxylate are applied to a soil cover layer as a mixture and incorporated by shaking the treated soil cover layer in a plastic bag. The cover layers were then placed on the pre-seeded pots. The plants are observed at the end of approximately 21 days and the results in terms of percent inhibition recorded. For each test, pots are prepared containing soil treated only with butachlor. For each test, pots are prepared containing soil treated only with the safening agent. Pots are also prepared with untreated soil.

[4] = system: Crabgrass; test: Percent inhibition of crabgrass, mixture incorporated in soil cover layer (Example 19, Table V); details: ~21 days
Excerpt: as §2

[5] = system: Panicum; test: Percent inhibition of panicum, mixture incorporated in soil cover layer (Example 19, Table V); details: ~21 days
Excerpt: as §2

[6] = system: Foxtail; test: Percent inhibition of foxtail, mixture incorporated in soil cover layer (Example 19, Table V); details: ~21 days
Excerpt: as §2

[7] = system: rice; test: Percent inhibition of rice, mixture incorporated in soil cover layer (Example 19, Table V); details: ~21 days
Excerpt: as §2

[8] = safening agent 8.96 kg/h + butachlor 2.24 kg/h
[9] = safening agent 8.96 kg/h + butachlor 4.48 kg/h
[10] = safening agent 8.96 kg/h + butachlor 8.96 kg/h

CCOC(=O)c1sc(Cl)nc1-c1ccccc1 [Example 1, Ethyl 2-Chloro-4-Phenyl-5-Thiazolecarboxylate]
Safening Effect [1]: 75 | Safening Effect ([2]; butachlor 0.14 kg/h): 78 | Safening Effect ([2]; butachlor 0.56 kg/h): 99 | Percent Inhibition, Barnyard Grass [3, 8]: 100% | Percent Inhibition, Barnyard Grass [3, 9]: 100% | Percent Inhibition, Barnyard Grass [3, 10]: 100% | Percent Inhibition, Barnyard Grass ([3]; safening agent alone 8.96 kg/h): 0% | Percent Inhibition, Crabgrass [4, 8]: 100% | Percent Inhibition, Crabgrass [4, 9]: 100% | Percent Inhibition, Crabgrass [4, 10]: 100% | Percent Inhibition, Crabgrass ([4]; safening agent alone 8.96 kg/h): 0% | Percent Inhibition, Panicum [5, 8]: 100% | Percent Inhibition, Panicum [5, 9]: 100% | Percent Inhibition, Panicum [5, 10]: 100% | Percent Inhibition, Panicum ([5]; safening agent alone 8.96 kg/h): 0% | Percent Inhibition, Foxtail [6, 8]: 100% | Percent Inhibition, Foxtail [6, 9]: 100% | Percent Inhibition, Foxtail [6, 10]: 100% | Percent Inhibition, Foxtail ([6]; safening agent alone 8.96 kg/h): 0% | Percent Inhibition, Rice [7, 8]: 8% | Percent Inhibition, Rice [7, 9]: 43% | Percent Inhibition, Rice [7, 10]: 45% | Percent Inhibition, Rice ([7]; safening agent alone 8.96 kg/h): 0%
